Entries after “also recorded” stand apart in the source; their conditions may differ. Like-named read-outs stand apart in the source and are kept apart here.
Legend:
HAE cells [1] = test: Wound restitution (migration) of scrape-wounded HAE cell monolayers; format: cell-based, human; conditions: peptide 8 μg/ml, EGF 50 ng/ml; 24-72 hr
Description: (§1) To measure growth (left panel), HAE cells were plated in 60-mm dishes. Peptide 77-97 (8 μg/ml), or EGF (50 ng/ml), or both were added to the medium and the number of cells counted 4 days later. […] Values are means±SE for 3 cultures. To measure migration (right panel), cells were grown in 60-mm dishes to prepare a confluent monolayer. The medium was aspirated and replaced with fresh medium containing 0.01% calf serum (CS). The monolayer was mechanically wounded by scraping with a razor blade. Detached cells were removed by aspirating medium, and rinsing the remaining cells twice with fresh medium containing 0.01% CS. Fresh medium (5 ml) containing CS (0.01%) and insulin (100 U/L) was added to wounded cultures. Either peptide 77-97 (8 μg/ml), EGF (50 ng/ml), or both were added to duplicate cultures. Migration was assessed at 24, 48 and 72 hr after wounding by measuring the distance (in mm) that cells had migrated from the wound edge using a microscope eyepiece reticle (10-mm long; 0.1-mm markings). Migrating cells at 12 randomly chosen sites along a 0.25-mm stretch of the wound edge were measured at 40-fold magnification. Migration at 2 different sites was measured for each of 2 separate wounds made in each culture. Values are the mean distance cells moved into the denuded area from the edge of 4 different wounds in 2 cultures±SE.
Confluent monolayer cultures were mechanically wounded by scraping with a razor blade, and the distance that cells migrated from the wound edge was measured using a microscope eyepiece reticle.

HAE cells [2] = test: Growth of human antrum epithelial (HAE) cells (cell count 4 days later); format: cell-based; conditions: peptide 77-97 8 μg/ml, EGF 50 ng/ml, 4 days
Description: as §1
(§2) To characterize the capacity of gastric and intestinal cells to respond to AMP-18, AGS gastric adenocarcinoma cells, HAE human gastric antrum mucosa primary cultures transformed with SV40 large T antigen, rat diploid small intestinal epithelial cells of the IEC-6 (FIG. 15) and IEC-18 lines, NCI N-87 gastric carcinoma cells, and SK-GT5 gastroesophageal adenocarcinoma cells were studied; human WI-38 fibroblasts and HeLa cells served as non-GI control cell lines. Mitogenesis was assayed by performing cell counts 3 to 4 days after exposing cells to the agent of interest, trypsinizing the culture to prepare single cells, and confirming this while counting them in a hemocytometer.

MDCK cells = test: Transepithelial electrical resistance (TER) of MDCK cell monolayers; format: cell-based; conditions: monochloramine 0.1 mM, 90 min; EGF 50 ng/ml
Description: Monolayer cultures of MDCK cells were grown on permeable polycarbonate filters (0.4-μm pore size) (Transell) in DMEM containing FBS (2%) without (control) or with peptide 77-97 (8 μg/ml) for 8 days. TER was measured 24 hr after the cells were plated, and at specified times thereafter using an epithelial volt-ohm meter (EVOM, Millipore). Following each measurement, medium containing FBS without or with peptide was changed (0, 48, and 144 hr), and additional peptide 77-97 (8 μg/ml) was added at 30 and 72 hr. At 72 hr, TER in cultures that received peptide 77-97 was twice as high as in control cultures. Values are means for 3 cultures; variance is <10% of the mean. TER was measured from 3 different areas on the filter.
(§3) Panel A: When a stable TER was reached (330 Ω·cm^2) in MDCK cell monolayers the medium was changed to DMEM containing FBS (0.2%), and either peptide 77-97 (8 μg/ml) or EGF (50 ng/ml). After 18 hr, peptide 77-97 or EGF were added to the specified wells. One hour later monochloramine (0.1 mM), like the other agents, was added to the apical and basal compartments of the Transwell. […] Panels B, C: Caco2/bbe (C2) subclone monolayers were grown on collagen-coated polycarbonate filters until a stable TER was reached (225 Ω·cm^2). Spent medium was replaced with fresh medium containing FBS (0.1%) alone or with peptide 77-97 (8 μg/ml). After 18 hr, monochloramine (0.3 mM, B) or indomethacin (0.1 mM, C) was added to both compartments of the Transwell. At time 0, cultures received either vehicle (control), vehicle plus oxidant or indomethacin, or peptide 77-97 and oxidant or indomethacin. TER of injured cultures treated with vehicle decreased by ˜35% at 90 min, whereas peptide-treated cultures declined ˜10%.

AGS cells = test: Growth of gastric epithelial AGS cells (cell count four days later); format: cell-based, human; conditions: peptide 77-97 8 μg/ml, EGF 50 ng/ml at saturating doses
Description: as §2

[3] = tested on: occludin, ZO-1, ZO-2, claudin-5, E-cadherin, JAM; test: Accumulation of tight and adherens junction proteins in C2 cells (immunoblot of insoluble fraction, confocal microscopy); format: cell-based, human; conditions: 8 hr
Description: To find out how the peptide exerts its cytoprotective effect, C2 cell monolayers were treated with AMP peptide, and oxidant injury was induced with monochloramine 18 hours later. Changes in the levels of specific tight junction (TJ) proteins were checked. Cells were lysed, and proteins of the insoluble/particulate fraction were studied by immunoblotting. […] This observation represents the first evidence that AMP peptide enhances accumulation of specific TJ proteins in colonic epithelial cells. […] To carry out this experiment, C2 cells were exposed to AMP peptide for different periods of time, the NP-40-insoluble fraction was obtained, Western blots were prepared, and the amount of each immunoreactive protein was quantified. A 65% increase in immunoreactivity of each protein compared to control was detected for occludin after 2 hr, and for ZO-1 at 8 hr. Hsc73, which is constitutively expressed in these cells, was not altered by exposure to AMP peptide for up to 18 hr.
Confluent monolayers of C2 cells were treated with AMP peptide or vehicle for 8 hr. Cells were then collected, proteins in the NP-40-insoluble fraction were separated by SDS-PAGE, immunoblots were prepared, and the relative amounts of immunoreactive proteins were compared by densitometric analysis. […] These changes appear relatively specific for occludin, ZO-1, ZO-2, claudin-5, E-cadherin, and JAM because they were not observed for several other proteins localized in the TJ (claudin-1, claudin-2), adherens junction (β-catenin), plasma membrane (Na-K-2Cl cotransporter, α or β subunit of Na-K-ATPase), or cytosol (Rho A, hsc73).
To better understand the mechanism(s) by which AMP peptide enhances accumulation of TJ-associated proteins, experiments were performed to determine whether the peptide exerted its effect at the apical or basolateral surface of C2 cells. Monolayers of C2 cells were grown on Transwell filters, AMP peptide (8:g/ml) was added to the apical or basolateral compartment of the Transwell, and cells were harvested 8 hr later. The NP-40-insoluble fraction was obtained, its proteins separated, and immunoblots were prepared.

IEC-6 cells = test: Growth of intestinal epithelial IEC-6 cells (cell count); format: cell-based, rat
Description: IEC-6 cells were grown in 60-mm dishes. […] Values are means±SE for 3 cultures.
as §2

IEC-18 cells = test: Growth of confluent cultures of IEC-18 cells (cell count); format: cell-based, rat; conditions: for EC50: read-out: half-maximal concentration (K1/2) for growth stimulation
Description: Confluent cultures of IEC-18 cells were prepared. One day later, medium was aspirated and replaced with 5 ml of DMEM containing CS (0.5%) and insulin, without (control) or with mitogenic peptide 58-99 (8 μg/ml). Sister plates receiving 1 ml medium and different amounts of peptide 67-85 were incubated at 1 hr at 38° C. on a CO2 incubator, and then an additional 4 ml of medium was added to each dish. Peptide 58-99 was added to 2 of the 4-sister plates at each concentration of peptide 67-85, and the number of cells was counted. […] Stimulation of cell growth by mitogenic peptide 58-99 was completely abolished by preincubation of cells with 0.25 μg/ml of peptide 67-85. […] Values for the number of cells per culture are shown relative to multiplication of cells exposed to the vehicle during the same period.
Urea (6 M) was employed to release proteins from the insoluble fraction solubilize rhAMP-18 containing the His6-tag (SEQ ID NO: 16), and make it available to bind to the Ni^2+-charged resin from which it was subsequently eluted with a gradient of imidazole (0 to 200 mM). The amount of eluted rhAMP-18 was measured using the BCA assay, and the appearance of a single band at the predicted size of 19-20 kD was confirmed by SDS-PAGE followed by immunoblotting. To determine if eluted rhAMP-18 renatured to assume a structure that was mitogenic, aliquots of the eluate (following removal of urea and imidazole by dialysis) were added to cultures of IEC-18 cells and the number of cells was counted 4 days later. […] AMP peptide 77-97 refers to the mature protein; same as peptide 97-117 of human precursor protein: Table 1. These observations indicate that biologically active recombinant human AMP-18 that can be utilized in diverse clinical situations is available. The mitogenic potency of rhAMP-18 is in the nanomolar range which would be expected for a native gastric cell growth factor that participates in the maintenance and repair of the stomach in vivo.
as §2

SK-GT5 cells = test: Growth of SK-GT5 gastroesophageal adenocarcinoma cells; format: cell-based; conditions: concentration-dependent
Description: as §2

NCI N-87 cells = test: Growth of NCI N-87 gastric carcinoma cells; format: cell-based; conditions: concentration-dependent
Description: as §2

[4] = tested on: stomach and intestinal epithelial cells; test: Concentrations at which gastric peptide mediators exert their effects in culture; format: cell-based
Caco2/bbe (C2) cells = test: Transepithelial electrical resistance (TER) of Caco2/bbe (C2) cell monolayers after injury; format: cell-based, human; conditions: monochloramine 0.3 mM, 45 min; rhAMP-18 100 nanomolar or peptide 3.7 micromolar pre-treatment; oxidant alone ~35%
Description: as §3
C2 cell monolayers were grown in DMEM containing FBS (5%) and transferrin (10 μg/ml) on collagen-coated polycarbonate filters until a stable TER was reached (225 Ωcm^2). At time 0, cells were exposed to no DSS (control), or DSS (4%) in the upper compartment of the Transwell. AMP peptide 77-97 (8 μg/ml) was added to the upper and lower compartments of the Transwell 1 day prior to the addition of DSS at time 0. TER of DSS-injured cultures treated with vehicle decreased by ˜70% at 45 min, whereas peptide-treated cultures declined ˜10% at that time. […] Values are means for ≧6 cultures.
Confluent C2 cell monolayers were prepared on Transwells until a stable TER was established. Medium was replaced with fresh medium containing FBS (0.1%) alone (control), or with either rhAMP-18 (100 nanomolar) or peptide 77-97 (3.7 micromolar). After 18 hr, monochloramine (0.3 mM) was added to both compartments of the Transwell, and cultures received either vehicle (control), vehicle plus oxidant, rhAMP-18 and oxidant, or peptide 77-97 and oxidant, after which TER was measured.
To determine whether AMP peptide could speed recovery of TER after DSS-induced colonic cell injury, a highly sought-after functional characteristic of an agent designed to treat IBD, C2 cell monolayers were exposed to DSS (5%) for 10 min which reduced TER to 33±6% of the control value (FIG. 29, left panel). DSS was removed by aspirating the medium and replacing it with fresh medium. AMP peptide 77-97 (8 μg/ml) or vehicle was added to the culture medium, and TER was measured 18 hr later. In the presence of the vehicle, TER increased from 33% to 66±7% of the control value, whereas cells exposed to AMP peptide reached a value 112±4% of control.
To determine if the cytoprotective effect of AMP peptide is mediated at the level of the actin cytoskeleton, C2 cell monolayers were exposed to cytochalasin D, an agent known to disrupt actin filaments and compromise barrier function (Madara et al., 1986).
To determine if AMP peptide could play a cytoprotective role in GDS, a study was carried out in C2 cell monolayers that were exposed to the PA-I lectin. […] Next the effect of AMP peptide was studied in the mouse model of P. aeruginosa-induced-GDS (Laughlin et al., 2000) using female Balb/c mice subjected to 30% hepatectomy, injection of a solution of living P. aeruginosa into the cecum, and food deprivation postoperatively. All 8 of the mice survived surgery.

| Molecule | migration from the wound edge compared with vehicle (HAE cells [1]) | proliferation of HAE cells (in words) (HAE cells [2]) | loss of TER after oxidant exposure (MDCK cells) | growth stimulation of AGS cells (in words) (AGS cells) | accumulation of occludin and ZO-1 (specificity) ([3]; peptides 8 μg/ml, EGF 50 ng/ml) | growth stimulation of IEC-6 cells (in words) (IEC-6 cells) | increase in cell number (IEC-18 cells; 3 days, peptide 58-99 8 μg/ml, EGF 50 ng/ml, vehicle 290%) | growth of SK-GT5 cells (SK-GT5 cells) | growth of NCI N-87 cells (NCI N-87 cells) | immunoreactive ZO-1 and occludin versus vehicle-treated cells ([3]; 100 nanomolar, laser densitometry) | concentrations at which physiological effects can occur [4] | concentration of maximal mitogenic effect (IEC-18 cells; FIG. 18) | growth stimulation of IEC-18 cells (in words) (IEC-18 cells; added alone, peptides up to 8 μg/ml) | EC50 (IEC-18 cells; confluent IEC-18 cultures, FIG. 13) | EC50 (IEC-18 cells; recently purified rhAMP-18, FIG. 18) | decline in TER after monochloramine (Caco2/bbe (C2) cells) |
| --- | --- | --- | --- | --- | --- | --- | --- | --- | --- | --- | --- | --- | --- | --- | --- | --- |
| EGF: polypeptide mitogen used for comparison at 50 ng/ml [reference compound] | stimulated cell movement | stimulated proliferation | 35-40% | stimulated growth; also recorded: mitogenic | not replicated | stimulated | 402% | stimulated | stimulated |  |  |  |  |  |  |  |
| rhAMP-18: recombinant human AMP-18 with N-terminal His6-tag replacing the signal peptide, expressed in E. coli (SEQ ID NO: 27) (protein, N-terminal His6 tag) MRGSHHHHHHGSNYNIDVNDDNNNAGSGQQSVSVNNEHNVANVDNNNGWDSWNSIWDYGNGFAATRLFQKKTCIVHKMKKEVMPSIQSLDALVKEKKLQGKGPGGPPPKGLMYSVNPNKVDDLSKFGKNIANMCRGIPTYMAEEMQEASLFFYSGTCYTTSVLWIVDISFCGDTVEN |  |  |  |  |  |  |  |  |  | about two-fold | < 50 nM | 5 nM | stimulates cell proliferation to the same maximal extent | ~30 nM | ~5 nM | ~10% |
